Data reported in the supplement of paper PMC10627819.

How the values were obtained:
S. pneumoniae D39V = experiment: fitness (endpoint OD595 vs no drug) (fraction); higher = more growth; conditions: main component drawn
Summary of the method: (§1)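 Volumes were 30 µl per well, or 55 µl for S. pneumoniae, in 384-well plates inoculated at OD595 0.01. Media were TSB, LB Lennox or CY at 37 °C, and OD595 was read every 30 min for 14 h with first-reading background subtraction. Fitness is the ratio of optical density at stationary-phase entry to the robust mean of no-drug controls. That ratio is capped at 1.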

B. subtilis 168 = experiment: as above; conditions: main component drawn
Summary of the method: as §1

CN(C)[C@@H]1C(O)=C(C(N)=O)C(=O)[C@@]2(O)C(O)=C3C(=O)c4c(O)ccc(Cl)c4[C@@](C)(O)[C@H]3C[C@@H]12 [Chlortetracycline] + CCC(C)C1C(=O)NC(=C)C(=O)NC(C(=O)NC(CSCC(C(=O)N1)NC(=O)/C(=C/C)/NC(=O)C(C(C)CC)N)C(=O)NC2C(SCC(NC(=O)CNC(=O)C3CCCN3C2=O)C(=O)NC(CCCCN)C(=O)NC4C(SCC(NC(=O)CNC(=O)C(NC(=O)C(NC(=O)C(NC(=O)CNC4=O)C)CC(C)C)CCSC)C(=O)NC(CC(=O)N)C(=O)NC(CCSC)C(=O)NC(CCCCN)C(=O)NC5C(SCC6C(=O)NC(C(=O)NC(CSC(C(C(=O)N6)NC(=O)C(NC5=O)C)C)C(=O)NC(CO)C(=O)NC(C(C)CC)C(=O)NC(CC7=CN=CN7)C(=O)NC(C(C)C)C(=O)NC(=C)C(=O)NC(CCCCN)C(=O)O)CC8=CN=CN8)C)C)C)CC(C)C [Nisin]
Conditions | fitness
B. subtilis 168, first compound 0.0475 µg/mL, partner 0.5 µg/mL | 0.902
B. subtilis 168, first compound 0.0475 µg/mL, partner 1 µg/mL | 0.849
B. subtilis 168, first compound 0.0475 µg/mL, partner 2 µg/mL | 0.452
B. subtilis 168, first compound 0.095 µg/mL, partner 0.5 µg/mL | 0.794
B. subtilis 168, first compound 0.095 µg/mL, partner 1 µg/mL | 0.733
B. subtilis 168, first compound 0.095 µg/mL, partner 2 µg/mL | 0.387
B. subtilis 168, first compound 0.19 µg/mL, partner 0.5 µg/mL | 0.605
B. subtilis 168, first compound 0.19 µg/mL, partner 1 µg/mL | 0.454
B. subtilis 168, first compound 0.19 µg/mL, partner 2 µg/mL | 0.116
S. pneumoniae D39V, first compound 0.012 µg/mL, partner 0.4275 µg/mL | 0.973
S. pneumoniae D39V, first compound 0.012 µg/mL, partner 0.855 µg/mL | 0.804
S. pneumoniae D39V, first compound 0.012 µg/mL, partner 1.71 µg/mL | 0.0763
S. pneumoniae D39V, first compound 0.024 µg/mL, partner 0.4275 µg/mL | 0.909
S. pneumoniae D39V, first compound 0.024 µg/mL, partner 0.855 µg/mL | 0.526
S. pneumoniae D39V, first compound 0.024 µg/mL, partner 1.71 µg/mL | 0.0832
S. pneumoniae D39V, first compound 0.048 µg/mL, partner 0.4275 µg/mL | 0.766
S. pneumoniae D39V, first compound 0.048 µg/mL, partner 1.71 µg/mL | 0.0976
S. pneumoniae D39V, first compound 0.375 µg/mL, partner 1.6 µg/mL | 0.014
S. pneumoniae D39V, first compound 0.375 µg/mL, partner 3.2 µg/mL | 0.0066
S. pneumoniae D39V, first compound 0.375 µg/mL, partner 6.4 µg/mL | 0.0151
S. pneumoniae D39V, first compound 0.75 µg/mL, partner 1.6 µg/mL | 0.0251
S. pneumoniae D39V, first compound 0.75 µg/mL, partner 3.2 µg/mL | 0.0392
S. pneumoniae D39V, first compound 0.75 µg/mL, partner 6.4 µg/mL | 0.0332
S. pneumoniae D39V, first compound 1.5 µg/mL, partner 1.6 µg/mL | 0.0279
S. pneumoniae D39V, first compound 1.5 µg/mL, partner 3.2 µg/mL | 0.0271
S. pneumoniae D39V, first compound 1.5 µg/mL, partner 6.4 µg/mL | 0.064

fitness, B. subtilis 168, one replicate
Conditions | partner 1.25 µg/mL | partner 1.6 µg/mL | partner 2.5 µg/mL | partner 3.2 µg/mL | partner 4 µg/mL | partner 5 µg/mL | partner 6.4 µg/mL | partner 8 µg/mL | partner 16 µg/mL
first compound 0.0475 µg/mL | 0.902 | 0.609 | 0.642 | 0.0268 | 0.0247 | 0.0756 | 0.0534 | 0.006 | 0
first compound 0.095 µg/mL | 0.805 | 0.49 | 0.607 | 0.0306 | 0.0278 | 0.0684 | 0.0417 | 0.0191 | 0.0123
first compound 0.19 µg/mL | 0.686 | 0.0405 | 0.338 | 0.0435 | 0.0329 | 0.0442 | 0.0404 | 0.0227 | 0.0213
